According to patent US20130005696A1, “BUFADIENOLIDE DERIVATIVES, PREPARING PROCESS THEREOF, COMPOSITION COMPRISING THE SAME AND THE USE THEREOF” (priority 2011, published 2013):

What was measured:
[1] = tested on: Jurkat human leukemic cell line; assay: In vitro antitumor activity assay (SRB), Jurkat; assay type: cell-based; details: 72 h, Table 3
Text: (§1) HeLa human cervical carcinoma cell line, A-549 human non-small cell lung carcinoma cell line, NCI-H2228 human lung carcinoma cell line, NCI-H460 human lung carcinoma cell line, MDA-MB-231 human breast carcinoma cell line, MCF-7 human breast carcinoma cell line, Bel-7402 human hepatic carcinoma cell line, Hep3B human hepatic carcinoma cell line, QGY-7703 human hepatic carcinoma cell line, MV-4-11 human leukemic cell line, DAUDI human leukemic cell line, Jurkat human leukemic cell line, A498 renal carcinoma cell line, LoVo human colon carcinoma cell line, HCT1116 human colon carcinoma cell line, A431 human skin carcinoma cell line, PANC-1 human pancreatic carcinoma cell line, U87-MG human brain carcinoma cell line, SH-SY5Y human brain carcinoma cell line, RPMI-8226 human bone carcinoma cell line, HT1080 human fibrosarcoma cell line, PC-3 human prostatic carcinoma cell line, AGS human gastric adenocarcinoma cell line, and BGC-823 human gastric adenocarcinoma cell line were purchased from the Cell Bank of the Chinese Academy of Sciences.
(§2) The positive control is bufalin (formulated according to the common method), its purity is 98% or more by HPLC-UV and its structure is identified by NMR. The compounds to be tested and the positive control were diluted with normal saline with a concentration gradient of 10^−4 M, 10^−5 M, 10^−6 M, 10^−7 M and 10^−8 M.
(§3) According to cell growth rate, tumor cells in the log phase of growth were seeded into 96-well culture plates at 100 μL per well, and allowed to attach for 24 hours, followed by addition of a test compound or positive control at 10 μL per well. For each concentration, the test was carried out in triplicate wells. […] Finally, Tris solution was added at 150 μL per well, and the absorbance (A) was measured at a wavelength of 515 nm using a microplate reader. The growth inhibition on tumor cell proliferation was calculated according to the following equation:
(§4) Growth Inhibition (%)=[(Absorbance of negative control−Absorbance of blank)−(Absorbance of sample−Absorbance of blank)]/(Absorbance of negative control−Absorbance of blank)×100% […]

[2] = tested on: DAUDI human leukemic cell line; assay: In vitro antitumor activity assay (SRB), Daudi; assay type: cell-based; details: 72 h, Table 3
Text: as §1, §2, §3, §4

[3] = tested on: NCI-H2228 human lung carcinoma cell line; assay: In vitro antitumor activity assay (SRB), NCI-H2228; assay type: cell-based; details: NCI-H2228, 72 h, Table 3
Text: as §1, §2, §3, §4

[4] = tested on: MDA-MB-231 human breast carcinoma cell line; assay: In vitro antitumor activity assay (SRB), MDA-MB-231; assay type: cell-based; details: MDA-MB-231, 72 h, Table 3
Text: as §1, §2, §3, §4

[5] = tested on: human non-small cell lung carcinoma A549 xenograft; assay: In vivo therapeutic effect against A549 xenograft in nude mice; details: for inhibition of growth of human lung carcinoma A549 xenograft, in words: A549 xenograft in nude mice, bufalin at 1.6 mg/kg; for Inhibition Rate (%) / Tumor Weight(g) Mean ± SE: A549 xenograft, after 21 days
Experimental: This experiment is to evaluate the in vivo therapeutic effects of compounds bufalin, II1D-06.HCl, II1E-01.HCl and II1B-02.HCl against human-derived lung carcinoma A549 cell xenograft in nude mice.
Solvent control: 4% DMSO & 2% Tween-80 & 5% PEG-400 solution in normal saline
Compounds to be tested: bufalin, II1B-02.HCl, II1E-01.HCl, II1D-06.HCl
Formulating method: the compound was dissolved with DMSO into a stock solution, which was then diluted into an injection with a final DMSO concentration of 4%.
Positive control: Rapamycin Formulating method: it was formulated into an injection with a final DMSO concentration of 4%.
(§5) After the tumor size reaches about 200 mm^3, the mice bearing the tumor were grouped randomly into 8 groups according to the tumor size, including the groups of solvent control, positive control rapamycin 5 mg/kg, II1E-01.HCl 2 mg/kg, II1E-01.HCl 4 mg/kg, II1E-01.HCl 6 mg/kg, II1B-02.HCl 4 mg/kg, II1D-06.HCl 4 mg/kg, bufalin 1.6 mg/kg, wherein the dosage selection is based on that the maximum tolerable dosage is 1.6 mg/kg for bufalin and 6 mg/kg for II1E-01.HCl. Rapamycin was administered intravenously once a week (QW) and the other groups were administered intraperitoneally once every other day (QOD). The tumor was weighted after 21 days to calculate the inhibition rate. The equation for calculating inhibition rate (IR) is IR=(WC−WT)/WC×100%, wherein, WC represents the tumor weight of the control group, and WT represents the tumor weight of the treating group.

[6] = Maximum tolerable dosage (basis of dosage selection); details: in vivo
Experimental: as §5

| SMILES | IC50 [1] | IC50 [2] | IC50 [3] | IC50 [4] | inhibition of growth of human lung carcinoma A549 xenograft, in words [5] | Inhibition Rate (%) ([5]; 2 mg/kg ip QOD) | Tumor Weight(g) Mean ± SE ([5]; 2 mg/kg ip QOD) | Inhibition Rate (%) ([5]; 4 mg/kg ip QOD) | Tumor Weight(g) Mean ± SE ([5]; 4 mg/kg ip QOD) | Inhibition Rate (%) ([5]; 6 mg/kg ip QOD) | Tumor Weight(g) Mean ± SE ([5]; 6 mg/kg ip QOD) | maximum tolerable dosage [6] | IC50 ([1]; Homo sapiens) | IC50 ([2]; Homo sapiens) | IC50 ([3]; Homo sapiens) | IC50 ([4]; Homo sapiens) | Inhibition Rate (%) ([5]; 1.6 mg/kg ip QOD) | Tumor Weight(g) Mean ± SE ([5]; 1.6 mg/kg ip QOD) | maximum tolerable dosage ([6]; mouse) |
| --- | --- | --- | --- | --- | --- | --- | --- | --- | --- | --- | --- | --- | --- | --- | --- | --- | --- | --- | --- |
| C[C@]12CC[C@H](OC(=O)NC3CCNCC3)C[C@H]1CC[C@@H]1[C@@H]2CC[C@]2(C)[C@@H](c3ccc(=O)oc3)CC[C@]12O.Cl [II1E-01•HCl] | 0.67 ± 0.1 nM | 2.34 ± 0.22 nM | 1.62 ± 0.5 nM | 7.31 ± 0.21 nM | significantly inhibit the growth | 32.43% | 1.1375 ± 0.1044 g | 70.57% | 0.4953 ± 0.0301 g | 87.70% | 0.2070 ± 0.0193 g | 6 mg/kg | – | – | – | – | – | – | – |
| C[C@]12CC[C@H](O)C[C@H]1CC[C@@H]1[C@@H]2CC[C@]2(C)[C@@H](c3ccc(=O)oc3)CC[C@]12O [bufalin, reference compound] | – | – | – | – | did not express strong inhibitory activity | – | – | – | – | – | – | – | 8.79 ± 2.48 nM | 12.6 ± 0.76 nM | 16.1 ± 2.51 nM | 28.7 ± 1.66 nM | 8.99% | 1.5320 ± 0.0624 g | 1.6 mg/kg |
